The values below come from ChEMBL document CHEMBL4354830, “Discovery of Benzo[cd]indol-2(1H)-ones and Pyrrolo[4,3,2-de]quinolin-2(1H)-ones as Bromodomain and Extra-Terminal Domain (BET) Inhibitors with Selectivity for the First Bromodomain with Potential High Efficiency against Acute Gouty Arthritis” (J Med Chem, 2019).

For data set [1], the system named is Rattus norvegicus. Description: In vivo inhibition of MSU-induced BRD4 expression in synovial tissue of Sprague-Dawley rat model of acute gout arthritis at 1 mg/kg, ia administered 1 hr before MSU challenge and measured upto 24 hrs by Western blot analysis. In kind it is functional, organism-based. (A western blot detects proteins with antibodies after separation by electrophoresis.)

Data set [2] has as its system Rattus norvegicus. Description: In vivo inhibition of MSU-induced NLRP3 inflammasome in synovial tissue of Sprague-Dawley rat model of acute gout arthritis at 1 mg/kg, ia administered 1 hr before MSU challenge and measured upto 24 hrs by immunofluorescence based confocal microscopy analysis. In kind it is functional, organism-based.
Data set [3] addresses T1, Bromodomain-containing protein 4 (Homo sapiens, UniProt O60885). The data set is described as follows: Displacement of tetra-acetylated histone H4 peptide (1-21) from recombinant human N-terminal His-tagged BRD4 BD1 (44 to 170 residues) expressed in Escherichia coli incubated for 30 mins followed by further incubation with tetra-acetylated histone H4 peptide (1-21) for 30 mins by Alphascreen assay.

The nature of data set [4]: Metabolic stability in monkey assessed as intrinsic hepatic clearance by LC/MS-MS analysis. It is filed as ADME, Macaca mulatta. The settings on record: rhesus monkey; read-out: CLH.
In data set [5] the target is T1, Bromodomain-containing protein 4. Description: Inhibition of BRD4 BD1 in human THP1 cells assessed as inhibition of MSU-induced NLRP3 inflammasome at 1 uM incubated for 1 hr followed by MSU treatment and measured after 12 hrs by immunofluorescence based confocal microscopy analysis. It is filed as cell-based.
Data set [6] has the same target. Description: Inhibition of BRD4 BD1 in human THP1 cells assessed as inhibition of MSU-induced pyroptosis by measuring caspase-/PI- cells at 1 uM incubated for 1 hr followed by MSU treatment and measured after 12 hrs by PI/caspase 1 double staining based flow cytometric analysis (reference value: 76.2 %). It is filed as cell-based. On the set-up: scale not given: the % may be the effect or the level left. Background: In flow cytometry, cells or beads pass a laser one at a time.

A short description of data set [7]: Metabolic stability in rat liver microsomes assessed as intrinsic clearance measured per mg protein upto 60 mins by LC/MS-MS analysis. In kind it is ADME, Microsome. The settings on record: read-out: CLH. Background: Microsomes from liver hold many membrane-bound enzymes, among them those of drug oxidation.
Data set [8] is filed under the species Homo sapiens. Description: Selectivity index, ratio of IC50 for BRDT BD1 (unknown origin) to IC50 for recombinant human N-terminal His-tagged BRD4 BD1 (44 to 170 residues) expressed in Escherichia coli by AlphaScreen assay.

Calls of active or inactive are those of the source. No cut-off for these calls is given here.

The IC50 is the concentration needed to halve the response being measured. Consider `COc1ccccc1S(=O)(=O)Nc1ccc2c3c(cc(-n4cnc(C)c4)nc13)C(=O)N2C`, for which the inhibition result in data set [1], in data set [2] and in data set [5] was “Active” throughout. Moreover, in data set [3], the IC50 stood at 87.7 nM. In addition, the CLint scaled in data set [4] came to 194 mL/min/kg. For the same compound, in data set [6], the Activity came to 86.6%. Besides, in data set [7], the microsomal CLint turned out to be 147 µL/min/mg. Also, the Ratio IC50 in data set [8] turned out to be 4.1.
